Reference: patent publication US9546157B2, “Asymmetric piperidinyl-substituted ureas as medicines” (Helsinn Healthcare SA, priority 2014, dated 2017)

Legend:
GHSR1a [1] = target: T1, GHSR1a (Homo sapiens, UniProt Q92847); experiment: Calcium FLIPR assay, GHSR-1a antagonism (reduction of ghrelin response); format: cell-based; conditions: HEK293/GHSR1a cells, ghrelin 10 nM
T1 construct: expressed in transfected cells; host or cells: HEK293
Description: (§1) The intracellular calcium assay was carried out in a 384-well format FLIPR™ (Molecular Device) HEK293/GHSR1a cell line. Cells were seeded 24 hr prior to the experiments at an optimal density per well. Preincubation with selected calcium dye lasted for 30-60 min at room temperature or 37° C. Test compounds, dissolved in DMSO, were added at the appropriate time and incubated for 15 min followed by the addition of ghrelin with FlexStation or FLIPR. Relative fluorescence was monitored by the FLIPR™ Molecular Device. EC50 and IC50 values were estimated from dose-response data using GraphPad Prism software. To check for GHSR-1a agonism the compound was added at t=20 sec. and the calcium response was followed for 2 minutes. To check for GHSR-1a antagonism the compound and Ghrelin (10 nM) were added to the cells at t=20 sec. and the calcium response was measured for 2 minutes. The potency of the antagonist was calculated by its ability to reduce the ghrelin response. Dose-response curves were made for relevant antagonists.

GHSR1a [2] = target: T1, GHSR1a; experiment: Calcium FLIPR assay, GHSR-1a agonism; format: cell-based; parameters: Emax: unit not given here; conditions: HEK293/GHSR1a cells
Description: as §1

T1 sequence (Q92847 whole entry): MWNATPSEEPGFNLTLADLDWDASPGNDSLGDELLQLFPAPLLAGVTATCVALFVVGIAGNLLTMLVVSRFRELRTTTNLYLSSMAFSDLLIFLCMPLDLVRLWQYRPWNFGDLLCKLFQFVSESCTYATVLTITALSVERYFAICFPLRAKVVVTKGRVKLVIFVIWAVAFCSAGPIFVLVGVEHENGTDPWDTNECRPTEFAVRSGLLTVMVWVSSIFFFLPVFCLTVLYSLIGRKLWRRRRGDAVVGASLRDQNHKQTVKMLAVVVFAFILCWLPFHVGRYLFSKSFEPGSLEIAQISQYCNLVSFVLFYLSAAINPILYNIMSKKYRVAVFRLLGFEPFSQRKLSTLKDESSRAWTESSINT

IC50 (GHSR1a [1])	EC50 (GHSR1a [2])	Emax (GHSR1a [2])	SMILES
> 1000 nM	> 30000 nM	–	CN1CCC(N(C)C(=O)NC2(c3ccc(-c4cncnc4)c(Cl)c3Cl)CC2)CC1 [Compound H0673, 3-(1-(2,3-dichloro-4-(pyrimidin-5-yl)phenyl)cyclopropyl)-1-methyl-1-(1-methylpiperidin-4-yl)urea]
3 nM	12 nM	3100	CC(=O)c1ccsc1-c1ccc(C(C)NC(=O)N(C)C2CCN(C)CC2)c(Cl)c1Cl (centres unmarked) [Compound H0688, 3-(1-(4-(3-acetylthiophen-2-yl)-2,3-dichlorophenyl)ethyl)-1-methyl-1-(1-methylpiperidin-4-yl)urea]
> 1000 nM	> 30000 nM	–	CC(NC(=O)N(C)C1CCN(C)CC1)c1ccc(-c2ccc(C(=O)O)s2)c(Cl)c1Cl (centres unmarked) [Compound H0689, 5-(2,3-dichloro-4-(1-(3-methyl-3-(1-methylpiperidin-4-yl)ureido)ethyl)phenyl)thiophene-2-carboxylic acid]
980 nM	> 30000 nM	–	CC(=O)c1cncc(-c2ccc(C(C)NC(=O)N(C)C3CCN(C)CC3)c(Cl)c2Cl)c1 (centres unmarked) [Compound H0690, 3-(1-(4-(5-acetylpyridin-3-yl)-2,3-dichlorophenyl)ethyl)-1-methyl-1-(1-methylpiperidin-4-yl)urea]
197 nM	100 nM	–	CC(NC(=O)N(C)C1CCN(C)CC1)c1ccc(-c2cnn(CCO)c2)c(Cl)c1Cl (centres unmarked) [Compound H0693, 3-(1-(2,3-dichloro-4-(1-(2-hydroxyethyl)-1H-pyrazol-4-yl)phenyl)ethyl)-1-methyl-1-(1-methylpiperidin-4-yl)urea]
309 nM	> 30000 nM	–	COCCn1cc(-c2ccc(C(C)NC(=O)N(C)C3CCN(C)CC3)c(Cl)c2Cl)cn1 (centres unmarked) [Compound H0694, 3-(1-(2,3-dichloro-4-(1-(2-methoxyethyl)-1H-pyrazol-4-yl)phenyl)ethyl)-1-methyl-1-(1-methylpiperidin-4-yl)urea]
120 nM	> 30000 nM	–	CC(NC(=O)N(C)C1CCN(C)CC1)c1ccc(-c2cc(F)cc(CO)c2)c(Cl)c1Cl (centres unmarked) [Compound H0696, 3-(1-(2,3-dichloro-3′-fluoro-5′-(hydroxymethyl)-[1,1′-biphenyl]-4-yl)ethyl)-1-methyl-1-(1-methylpiperidin-4-yl)urea]
116 nM	91 nM	2111	C=Cc1cncc(-c2ccc(C(C)NC(=O)N(C)C3CCN(C)CC3)c(Cl)c2Cl)c1 (centres unmarked) [Compound H0706, 3-(1-(2,3-dichloro-4-(5-vinylpyridin-3-yl)phenyl)ethyl)-1-methyl-1-(1-methylpiperidin-4-yl)urea]
1370 nM	> 30000 nM	–	COCc1cncc(-c2ccc(C(C)NC(=O)N(C)C3CCN(C)CC3)c(Cl)c2Cl)c1 (centres unmarked) [Compound H0708, 3-(1-(2,3-dichloro-4-(5-(methoxymethyl)pyridin-3-yl)phenyl)ethyl)-1-methyl-1-(1-methylpiperidin-4-yl)urea]
1850 nM	> 30000 nM	–	CC(NC(=O)N(C)C1CCN(C)CC1)c1ccc(-c2cncc(-c3c[nH]cn3)c2)c(Cl)c1Cl (centres unmarked) [Compound H0711, 3-(1-(4-(5-(1H-imidazol-4-yl)pyridin-3-yl)-2,3-dichlorophenyl)ethyl)-1-methyl-1-(1-methylpiperidin-4-yl)urea]
420 nM	220 nM	1962	CC(=O)Nc1cncc(-c2ccc(C(C)NC(=O)N(C)C3CCN(C)CC3)c(Cl)c2Cl)c1 (centres unmarked) [Compound H0712, N-(5-(2,3-dichloro-4-(1-(3-methyl-3-(1-methylpiperidin-4-yl)ureido)ethyl)phenyl)pyridin-3-yl)acetamide]
187 nM	29 nM	3424	CC(NC(=O)N(C)C1CCN(C)CC1)c1ccc(-c2ccc(C#N)s2)c(Cl)c1Cl (centres unmarked) [Compound H0713, 3-(1-(2,3-dichloro-4-(5-cyanothiophen-2-yl)phenyl)ethyl)-1-methyl-1-(1-methylpiperidin-4-yl)urea]
57 nM	42 nM	2479	CCc1cncc(-c2ccc(C(C)NC(=O)N(C)C3CCN(C)CC3)c(Cl)c2Cl)c1 (centres unmarked) [Compound H0715, 3-(1-(2,3-dichloro-4-(5-ethylpyridin-3-yl)phenyl)ethyl)-1-methyl-1-(1-methylpiperidin-4-yl)urea]

The next lines start with the compound.

SMILES	IC50 (GHSR1a [1])	EC50 (GHSR1a [2])	Emax (GHSR1a [2])
CN1CCC(N(C)C(=O)NC2(c3ccc(-c4cccs4)c(Cl)c3Cl)CC2)CC1 [Compound H0672, 3-(1-(2,3-dichloro-4-(thiophen-2-yl)phenyl)cyclopropyl)-1-methyl-1-(1-methylpiperidin-4-yl)urea]	> 1 nM	> 30000 nM	–
CON(C)C(=O)c1ccc(-c2ccc(C(C)NC(=O)N(C)C3CCN(C)CC3)c(Cl)c2Cl)s1 (centres unmarked) [Compound H0692, 5-(2,3-dichloro-4-(1-(3-methyl-3-(1-methylpiperidin-4-yl)ureido)ethyl)phenyl)-N-methoxy-N-methylthiophene-2-carboxamide]	550 nM	> 1000 nM	–
CC(NC(=O)N(C)C1CCN(C)CC1)c1ccc(-c2cncc(Br)c2)c(Cl)c1Cl (centres unmarked) [Compound H0695, 3-(1-(4-(5-bromopyridin-3-yl)-2,3-dichlorophenyl)ethyl)-1-methyl-1-(1-methylpiperidin-4-yl)urea]	78 nM	5 nM	–
CC(NC(=O)N(C)C1CCN(C)CC1)c1ccc(-c2cncc(CC#N)c2)c(Cl)c1Cl (centres unmarked) [Compound H0699, 3-(1-(2,3-dichloro-4-(5-(cyanomethyl)pyridin-3-yl)phenyl)ethyl)-1-methyl-1-(1-methylpiperidin-4-yl)urea]	171 nM	> 30000 nM	–
CC(=O)/C=C(\Cl)c1ccc(C(C)NC(=O)N(C)C2CCN(C)CC2)c(Cl)c1Cl (centres unmarked) [Compound H0702, (Z)-3-(1-(2,3-dichloro-4-(1-chloro-3-oxobut-1-en-1-yl)phenyl)ethyl)-1-methyl-1-(1-methylpiperidin-4-yl)urea]	96 nM	1100 nM	1940
CN1CCC(N(C)C(=O)NC(C)(C#N)c2ccc(-c3cncnc3)c(Cl)c2Cl)CC1 (centres unmarked) [Compound H0703, 3-(1-cyano-1-(2,3-dichloro-4-(pyrimidin-5-yl)phenyl)ethyl)-1-methyl-1-(1-methylpiperidin-4-yl)urea]	695 nM	> 30000 nM	–
CC(NC(=O)N(C)C1CCN(C)CC1)c1ccc(-c2cncc(-c3cn[nH]c3)c2)c(Cl)c1Cl (centres unmarked) [Compound H0707, 3-(1-(4-(5-(1H-pyrazol-4-yl)pyridin-3-yl)-2,3-dichlorophenyl)ethyl)-1-methyl-1-(1-methylpiperidin-4-yl)urea]	185 nM	> 30000 nM	–
CON(C(=O)NC(C#N)c1ccc(-c2cncnc2)c(Cl)c1Cl)C1CCN(C)CC1 (centres unmarked) [Compound H0709]	676 nM	> 30000 nM	–
C#Cc1cncc(-c2ccc(C(C)NC(=O)N(C)C3CCN(C)CC3)c(Cl)c2Cl)c1 (centres unmarked) [Compound H0710, 3-(1-(2,3-dichloro-4-(5-ethynylpyridin-3-yl)phenyl)ethyl)-1-methyl-1-(1-methylpiperidin-4-yl)urea]	275 nM	395 nM	1621
COCCc1cncc(-c2ccc(C(C)NC(=O)N(C)C3CCN(C)CC3)c(Cl)c2Cl)c1 (centres unmarked) [Compound H0714, 3-(1-(2,3-dichloro-4-(5-(2-methoxyethyl)pyridin-3-yl)phenyl)ethyl)-1-methyl-1-(1-methylpiperidin-4-yl)urea]	453 nM	> 30000 nM	–
